PMC8007111, “Novel Potent Muscarinic Receptor Antagonists: Investigation on the Nature of Lipophilic Substituents in the 5- and/or 6-Positions of the 1,4-Dioxane Nucleus” (Journal of Medicinal Chemistry, 2020)

Legend:
hM5 mAChR = biological target: T1, hM5 mAChR (Homo sapiens, UniProt P08912); experiment: [3H]NMS inhibition radioligand binding, hM5 in CHO-K1 cell membranes; conditions: [3H]NMS, CHO-K1 cell membranes; mean ± S.E.M.
T1 construct: expressed in transfected cells; host or cells: CHO-K1 (membrane preparation)
T1 sequence (P08912 1-532): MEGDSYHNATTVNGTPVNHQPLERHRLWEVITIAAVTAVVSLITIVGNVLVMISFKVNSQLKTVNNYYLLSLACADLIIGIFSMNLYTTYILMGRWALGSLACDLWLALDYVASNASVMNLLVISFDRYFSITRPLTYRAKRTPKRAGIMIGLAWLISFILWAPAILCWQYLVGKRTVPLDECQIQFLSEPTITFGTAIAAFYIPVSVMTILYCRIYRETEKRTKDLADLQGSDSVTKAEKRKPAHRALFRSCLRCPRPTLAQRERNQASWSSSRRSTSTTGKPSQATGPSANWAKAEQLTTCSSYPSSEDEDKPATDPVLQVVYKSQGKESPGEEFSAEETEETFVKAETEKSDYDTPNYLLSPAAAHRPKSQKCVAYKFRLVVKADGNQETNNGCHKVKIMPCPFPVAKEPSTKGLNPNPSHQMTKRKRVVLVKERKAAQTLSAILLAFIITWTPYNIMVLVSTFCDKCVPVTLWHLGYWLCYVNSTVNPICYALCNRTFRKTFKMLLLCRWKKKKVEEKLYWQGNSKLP

[1] = test system: MSCs from mouse bone marrow; experiment: Carbachol-induced MSC viability (MTS assay); format: cell-based; conditions: pre-incubation 1 h, then carbachol 10^–10 M for 24 h
Experimental: It is well established that bone marrow MSC behavior is influenced by a variety of signaling systems. In context, cholinergic intramural stimuli and, in particular, muscarinic signals orchestrate MSCs viability and commitment.[11],[12] Considering also the pluripotent MSC nature and their contribution to bone, blood, and systemic homeostasis,[53] viability studies on MSCs were performed to determine the functional profile of 3b, the most interesting compound in this series. […] Successively, the efficacy of 3b in contrasting cell viability induced by the well-known mAChR agonist carbachol was evaluated. […] Further research on the intracellular mechanistic outcomes of 3b on MSCs remains mandatory.
The in vitro studies were performed by using bone marrow MSCs as a model. Male BALB/c mice (Harlan Italy SrL, Milano, Italy) (8 weeks old; body weight ∼24.5 g; n = 4) were kept in a laminar-flow cage in a standardized environmental condition. Food (Harlan, Italy), and water was supplied ad libitum. Mice were sacrificed by CO2 narcosis and cervical dislocation in accordance with the recommendations of the Italian Ethical Committee and under the supervision of authorized investigators. Long bones (femurs and tibiae) were dissected and cleaned from skin, muscle, and connective tissues as much as possible. Bones were placed in a culture dish containing sterile PBS. Then, the bone cavity was flushed in DMEM with a syringe in order to collect the bone marrow cells into a 50 mL sterile tube. […] After 2 weeks of initiating culture, cells were washed with PBS, detached by trypsinization, counted, and plated at the density of 5,000 cells/well in 96 culture plates (Costar Corp., Milano, Italy) in DMEM containing 10% HIFCS, penicillin, and streptomycin.
MSCs were treated with compound 3b (from 10^–4 to 10^–10 M) for 24 h. […] At the end of each procedure, the MSCs viability was measured by MTS assay. […] The quantity of the formazan product was directly proportional to the number of living cells in culture. The colored formazan was measured by reading the absorbance at 490 nm using a […] plate reader.

For `C[N+](C)(C)C[C@@H]1COC[C@](c2ccccc2)(C2CCCCC2)O1.[I-]` (relative stereo) [3b, 1-((2R*,6R*)-6-Cyclohexyl-6-phenyl-1,4-dioxan-2-yl)-N,N,N-trimethylmethanaminium Iodide], the “pKi hM5” value (hM5 mAChR) was 8.41 ± 0.1 and the “effect on carbachol-induced MSC viability” value [1] was “able to contrast the increase of carbachol-induced MSC viability”.
